“Also recorded” adds a separate entry of the source.
Experiments:
[1] = system: coronary arteries of pigs; test: Probucol and Melatonin biological-oil coated stents implanted in porcine coronary arteries, histopathology and morphometry at 4 weeks; format: in vivo, Domestic crossbred pigs; conditions: oil-coated loaded stents; for AS: Area stenosis (= 100 * (1 − LA/IEL)) / Inflammation (peri-strut inflammation score 1-3, mean) / Injury (arterial injury score, Schwartz grade 0-3, mean) / NIH: Neointimal hyperplasia (= IEL − LA) / LA: Lumen area: 4 weeks follow-up; for LA: Lumen area: Probucol 447+/−56 μg, Melatonin 367+/−47 μg per stent; for effect on arterial injury and inflammatory response (in words): compared to bare and/or oil-only stents
Description: Domestic crossbred pigs of both sexes weighing 20-25 kg were used. They were fed with a standard natural grain diet without lipid or cholesterol supplementation throughout the study. All animals were treated and cared for in accordance with the Belgium National Institute of Health Guidelines for care and use of laboratory animals.
In this study, bare Jostent Flexmaster stents (n=8), Bare stents dipped in a Biological oil coating (Oil Only; n=7), Bare stents dipped in a Probucol/Biological oil coating solution resulting in a total Probucol load of 447+/−56 μg/per stent (Pro, n=7) and Bare stents dipped in a Melatinin/Biological oil coating solution resulting in a total Melatonin load of 367+/−47 μg/stent (Mela, n=8). Stents were implanted in the coronary arteries of 15 pigs. All pigs were followed for 4 weeks to evaluate the peri-strut inflammatory response and neointimal formation.
Surgical procedure and stent implantation in the coronary arteries were performed according to the method described by De Scheerder et al. in “Local angiopeptin delivery using coated stents reduces neointimal proliferation in overstretched porcine coronary arteries.” J. Inves. Cardiol. 8:215-222; 1996, and in “Experimental study of thrombogenicity and foreign body reaction induced by heparin-coated coronary stents.” Circulation 95:1549-1553; 1997. The guiding catheter was used as a reference to obtain an oversizing from 10 to 20%.
Coronary segments were carefully dissected together with a 1 cm minimum vessel segment both proximal and distal to the stent. The segments were fixed in a 10% formalin solution. The middle part of each stent was harvested for histopathologic analysis. Tissue specimens were embedded in a cold-polymerizing resin (Technovit 7100, Heraus Kulzer GmbH, and Wehrheim, Germany). Sections, 5 microns thick, were cut with a rotary heavy duty microtome HM 360 (Microm, Walldorf, Germany) equipped with a hard metal knife and stained with hematoxylin-eosin, elastic stain and phosphotungstic acid hematoxylin stain. Light microscopic examination was performed by an experienced pathologist who was blinded to the type of stent used. Injury of the arterial wall due to stent deployment (and eventually inflammation induced by the polymer) was evaluated for each stent filament and graded as described by Schwartz et al. • Grade 0=internal elastic membrane intact, media compressed but not lacerated; • Grade 1=internal elastic membrane lacerated; • Grade 2=media visibly lacerated; external elastic membrane compressed but intact; • Grade 3=large laceration of the media extending through the external elastic membrane or stent filament residing in the adventitia.
Inflammatory reaction at each stent filament was carefully examined, searching for inflammatory cells, and scored as followed: • 1=sparsely located histolymphocytes surrounding the stent filament; • 2=more densely located histolymphocytes covering the stent filament, but no lymphogranuloma and/or giant cells formation found; • 3=diffusely located histolymphocytes, lymphogranuloma and/or giant cells, also invading the media. • Mean score=sum of score for each filament/number of filament present.

porcine coronary model [2] = test: Directly (ethanol dip) coated stents in a porcine coronary model; format: in vivo; conditions: direct coating
Excerpt: To get rid of the polymer, which remains always a concern when coating a drug on an endoluminal prosthesis, since several polymers have shown to be non biocompatible and to induce an inflammatory response leading to SMC proliferation and restenosis, the present inventor tried to coat melatonin directly to the surface of the endoluminal prosthesis. As endoluminal prosthesis use was made of a commercially available 316L stainless steel coronary stent (V-Flex Plus, 16 mm/3.0 mm, William Cook Europe) and the stent was dipped in a 20 mg/ml ethanol solution for 30 seconds. After removal the stent was air-dried using a warm laminar flow to evaporate the ethanol. Using this method a total melatonin load on the stent of 20 μg could be achieved. […] This could be explained by the 1) the potent free radical scavenging effect of melatonin, 2) the potent anti-inflammatory effect of melatonin, 3) maybe a direct effect on SMC proliferation, 4) the non toxic effect of melatonin on other mediators of the healing response.
In a next step the total load of melatonin was increased by using more concentrated melatonin/ethanol solutions. By doing so a maximum total load of 300 μg/ stent could be achieved.

[3] = In-vitro release of drug from coated stent; format: physicochemical
Description: (§1) A disavantage of the direct coating system is the fast release of the drug from the stent.
(§2) In order to maintain significant melatonin concentrations for a longer period of time to obtain a durable anti-restenosis effect the present inventor has developed new methods to achieve a slower melatonin release. The drug was dissolved in a biocompatible emulsion of oil and a solvent wherein the drug is highly soluble. The stent was dipped in this emulsion several times and in between the different dipping steps air-dried using a warm laminar flow to evaporate the solvent and harden the drug/oil coating.

[4] = In-vivo melatonin coronary vascular concentration after direct-coated stent; conditions: direct coating
Excerpt: as §1

porcine coronary model [5] = test: Oil/solvent emulsion coated stents (500 μg) in a porcine coronary model, up to 3 months; format: in vivo; conditions: oil/solvent emulsion coating, 500 μg melatonin per stent
Description: as §2
Using the same coating method, no effect of probucol was found.

[6] = system: in-stent neointimal hyperplasia; test: Further studies with different total loading doses per stent, in-stent neointimal hyperplasia; format: in vivo

Row | SMILES | effect on neointimal hyperplasia compared to bare and oil-only stents (in words) ([1]; 4 weeks) | lumen area compared with the other groups (in words) ([1]; 4 weeks) | AS: Area stenosis (= 100 * (1 − LA/IEL)) [1] [%] | Inflammation (peri-strut inflammation score 1-3, mean) [1] | Injury (arterial injury score, Schwartz grade 0-3, mean) [1] | NIH: Neointimal hyperplasia (= IEL − LA) [1] [mm2] | LA: Lumen area [1] [mm2] | effect on arterial injury and inflammatory response (in words) ([1]; 4 weeks) | biocompatibility / inflammation surrounding the struts on histological examination (porcine coronary model [2]; 20 μg per stent, follow-up after 5 days) | effect on inflammatory response and neointimal hyperplasia (porcine coronary model [2]; high dose, maximum total load 300 μg/stent) | decrease in neointimal hyperplasia compared to a bare stent (porcine coronary model [2]; total load 20 μg per stent, after 4 weeks) [%] | In-vitro release ([3]; direct coating, within 24 hours) [%] | melatonin release period ([3]; oil/solvent emulsion coating, total load 500 μg per stent) | duration of sufficient melatonin coronary vascular concentration [4] | effect on peri-strut inflammation and neointimal hyperplasia (porcine coronary model [5]) | effect on neointimal hyperplasia ([6]; dose depending response, already observed for a dose of 0.5 μg/mm^2 stent area) | Inflammation (peri-strut inflammation score 1-3, mean) ([1]; listed as Probutol) | effect on inflammatory response and neointimal hyperplasia (porcine coronary model [2]; similar experiments as 20 μg melatonin stents) | effect on in-stent neointimal hyperplasia ([6]; Probucol total loading doses 10-2000 μg per stent)
1 | COc1ccc2[nH]cc(CCNC(C)=O)c2c1 [Melatonin, N-acetyl-5-methoxytryptamine] | significant decrease | larger than the other groups | 16±7 | 1.00±0.00 | 0.08 ± 0.09 | 0.89±0.28 | 5.10 ± 1.40 | the injury score was dramatically decreased; also recorded: minimal inflammatory response | without inducing any inflammation | efficient blocking of inflammatory response and neointimal hyperplasia | 26 | 90 | weeks instead of days | up to 15 days | Sustained inhibition of peri-strut inflammation and neointimal hyperplasia | significant inhibition |  |  | 
2 | CC(C)(Sc1cc(C(C)(C)C)c(O)c(C(C)(C)C)c1)Sc1cc(C(C)(C)C)c(O)c(C(C)(C)C)c1 [Probucol] | no significant effect |  | 24 ± 14 | 1.03 ± 0.08 | 0.28 ± 0.20 | 1.43 ± 0.77 | 4.46 ± 1.06 | could decrease arterial injury and inflammatory response |  |  |  |  |  |  | no effect |  | 1.03±0.08 | did not result in a significant effect | no significant effect

— patent US20070005124A1, “Endoluminal prosthesis comprising a therapeutic agent” (Blue Medical Devices B.V., priority 2003, published 2007)
